Format in all cases: in vivo
Test [1] concerns breast cancer 4T1 cells. The test is described as follows: Short-term tumor inhibition in 4T1 tumor-bearing BALB/c mice (Example 9, Table 14). The note with it: dosed twice, 7th day after final administration; for tumor inhibition rate rA: series A: intravenous injection; for tumor inhibition rate rB: series B: intratumoral injection. The source says: (§1) The method for determining the effect of combined drug administration in animal experiments was Burgi method (Burgi Y. Pharmacology; Drug actions and reactions. Cancerres. 1978, 38(2), 284-285). The Burgi method was modified by Zhengjun JIN (Zhengjun JIN, Equal probability and curve and “Q50”, Journal of the Second Shanghai Medical College; 1981, 1, 75-86) with q calculated as: q=EA+B/(EA+EB−EA×EB). In the following examples of the present invention, the combinational pharmaceutical efficacies (drug efficacies) of drug A and drug B co-administration was determined by ratio q of actual pharmaceutical efficacy (drug efficacy)/theoretical pharmaceutical efficacy (drug efficacy) according to Zhengjun JIN method, as follows.
BALB/c mice were used as experimental subjects, and breast cancer 4T1 cells were used as modeling cells. 0.5×10^6 cells/mouse were injected into the right axilla subcutaneously for transplantation tumor modeling, and the average tumor volume of successfully modeled nude mice was 160.1 mm^3. The model animals were randomly divided into 21 groups, and the drugs were administered by intravenous injection (series A) and intratumoral injection (series B) according to the drugs and doses in Table 14, respectively. All the drugs administered were aqueous liquids, which were formulated according to the method of Example 1. Each group was dosed twice. On the 7th day after final administration, the animals were euthanized, and the tumor tissues were taken out after dissection to determine the tumor weight, and the tumor inhibition rates rA and rB were calculated relative to the corresponding negative control groups in series A and series B.

For test [2], the system named is human hepatoma cells (HepG2). Kind of test: Tumor inhibition in HepG2 tumor-bearing nude mice, probiotic component/methylene blue (Example 7, Table 11). The following applies: dosed twice, interval 7 days, 150 μl/mouse/time, 7th day after final administration, probiotic component = inactivated Saccharomyces cerevisiae.
Description: as §1
Nude mice were used as experimental subjects, and human hepatoma cells (HepG2) were used as modeling cells. […] The model animals were randomly divided into 13 groups, and the drugs were administered according to Table 11. […] Each group was dosed twice with an interval of 7 days, and the injection volume was 150 μl/mouse/time. On the 7th day after final administration, the animals were euthanized, and the tumor tissues were taken out after dissection to determine the tumor weight, and the tumor inhibition rate was calculated relative to the negative control group.

The subject of test [3] is mouse embryonic fibroblasts 3T3. Kind of test: Local lesion inhibition in 3T3 fibroblast nodule model in nude mice (Example 6, Table 9). The following applies: dosed twice at interval of 2 days, 150 μl/mouse/time, 7th day after final administration.
Description: (§2) V=0.5×a×b^2, wherein a and b represent the length and width of the local lesion, respectively; Volume of the local lesion (e.g. tumor):
(§3) Local lesion (e.g., tumor) proliferation rate (R)=TV/CV×100, wherein TV and CV are the local lesion volumes in the study group and negative control group, respectively;
as §1
Nude mice were used as experimental subjects, and mouse embryonic fibroblasts 3T3 were used as modeling cells. 2×10^4 cells/mouse were injected into the right axilla subcutaneously for transplantation nodule modeling, and the average volume of tumor-like nodules in successfully modeled nude mice was 171.5 mm^3. The model animals were randomly divided into […], and the drugs were administered according to Table 9. Each group except for groups 21-24 were administered by intraperitoneal injection, intra-nodal injection. The drugs used in groups 21-24 were a composition of non-local administration dosage form (dosage form that a probiotic component and a co-administration substance could be administered separately). The administration route of series A was: intraperitoneal injection of probiotic component+intra-nodal injection of co-administration substance; and the administration route of series B was: intraperitoneal injection of co-administration substance+intra-nodal injection of probiotic component. Each group was dosed twice at an interval of 2 days, with an injection volume of 150 μl/mouse/time. On the 7th day after the final administration, the volume (V) of local lesions comprising fibroblasts was measured, and the relative local lesion inhibition rates (r′A, r′B) were calculated for series A and series B, respectively, as compared with the negative control group. Further, the actual drug efficacy/expected efficacy ratio q could also be calculated according to the therapeutic effect (local lesion inhibition rate).

The test system of test [4] is gastric tumor cells (BGC823). Kind of test: Tumor inhibition in BGC823 tumor-bearing nude mice (Example 5, Table 8). The following applies: intratumoral injection once, 150 μl/mouse, 7th day.
Description: as §1
Nude mice were used as experimental subjects, and gastric tumor cells (BGC823) were used as modeling cells, 1×10^5 cells/mouse were injected into the right axilla subcutaneously for transplantation tumor modeling, and the average tumor volume of successfully modeled nude mice was 164.4 mm^3. The model animals were randomly divided into 14 groups, and the drugs according to the pharmacological constitutions in Table 8 were administered via intratumoral injection. Each group was dosed once with an injection volume of 150 μl/mouse; wherein the pharmaceutical compositions of groups 5, 11 were semi-fluid, the pharmaceutical compositions of other groups are liquid. On the 7th day after drug administration, the animals were euthanized, and after dissection, the tumor tissue was taken out to determine the tumor weight, and the tumor inhibition rate (r) was calculated relative to the negative control group. Further, the actual efficacy/expected efficacy ratio q of a drug could also be calculated according to the therapeutic effect (tumor inhibition rate).

Test [5] relates to mouse breast cancer 4T1 cells. The test is described as follows: Middle-aged and elderly patient model, 4T1 tumors in eight-month-old mice, r′3d/r′21d (Example 14, Table 19). The following applies: single intratumoral injection, 50 l/mouse; for Tumor inhibition rate r′3: day 3 after administration; for Tumor inhibition rate r′21: day 21 after administration.
Description: as §2, §3, §1
Eight-month-old mice were used as experimental subjects in the middle-aged and elderly patient model, 0.5×10^5 mouse breast cancer 4T1 cells/mouse were injected into the right axilla subcutaneously for transplantation tumor modeling, and the mean tumor volume of successfully modeled nude mice was 117.3 mm^3. The model animals were randomly divided into 18 groups. Each group was administered once by intratumoral injection according to the drug grouping in Table 19 with an injection volume of 50 l/mouse. The local lesion volume (V) was measured on day 3 and day 21 after drug administration, and the tumor inhibition rates (r′3d, r′21d) were calculated at each of time points relative to the negative control group, and the results were shown in the following Table. The drugs to be administered were prepared according to the conventional preparation method for aqueous solution or according to the preparation method in Example 1. The actual/expected ratio q3d for short-term drug efficacy and the actual/expected ratio […] for medium- and long-term drug efficacy were calculated based on the drug efficacies (r′3d, r′21d) at different times (day 3, day 21), respectively.

The subject of test [6] is human liver cancer HepG2 cells. The test is described as follows: Tumor inhibition in HepG2 tumor-bearing nude mice (Example 2, Table 4). The note with it: dosed once, 150 μl/mouse; for Tumor weight (x ± s): 7th day after administration; for Tumor inhibition rate r: 7th day, relative to negative control. Here is the method:
The tumor-bearing nude mice were widely used for drug studies on chemotherapy rather than immunotherapy in patients with solid tumors. Taking nude mice as experimental subjects, human liver cancer HepG2 cells were used as modeling cells, and 1×10^5 cells/mouse were injected into the right axilla subcutaneously for transplantation tumor modeling, and the average tumor volume of successfully modeled nude mice was 161.3 mm^3. The model animals were randomly divided into 17 groups. The drugs were administered according to the drug and dosing method in Table 4. Each group was dosed once with an injection volume of 150 μl/mouse. On the 7th day after drug administration, the animals were euthanized, and after dissection, the tumor tissue was taken out to determine the tumor weight, and the tumor inhibition rate (r) was calculated relative to the negative control group.

For test [7], the system named is breast cancer 4T1 cells. The test is described as follows: Extra-tumoral local administration in 4T1 tumor-bearing BALB/c mice, R7d/R21d (Example 11, Table 17). The note with it: subaxillary intradermal (extra-tumoral), twice at 7-day interval, 120 μl/mouse/time. Here is the method:
as §2, §3
In the following examples of the present invention, the combinational pharmaceutical efficacies (drug efficacies) of drug A and drug B co-administration was determined by ratio q of actual pharmaceutical efficacy (drug efficacy)/theoretical pharmaceutical efficacy (drug efficacy) according to Zhengjun JIN method, as follows.
BALB/c mice were used as experimental subjects, and breast cancer 4T1 cells were used as modeling cells. 0.25×10^5 cells/mouse were injected into the right axilla subcutaneously for transplantation tumor modeling. On the 5th day after modeling, the test animals with visually obvious tumors were randomly divided into 12 groups, having 10 animals in each group. […] In groups 1-11, on days 7 and 21 after the last dose the tumor volume (V7d, V21d) were measured, and the relative tumor proliferation rates (R7d, R21d) were calculated relative to the negative control group on days 7 and 21 after the dose, so that the short-term therapeutic effectiveness (100%−R7d) and the medium- and long-term therapeutic effectiveness (100%−R21d) could be calculated, respectively. Further, based on the short-term therapeutic effectiveness and the medium- and long-term therapeutic effectiveness, the actual/expected ratio for short-term pharmaceutical efficacies q7d and the actual/expected ratio for medium- and long-term pharmaceutical efficacies q21d were calculated respectively.

Test [8] relates to breast cancer 4T1 cells. Kind of test: Short- and medium/long-term relative tumor proliferation rate in 4T1 tumor-bearing BALB/c mice (Example 10, Table 16). The following applies: intratumoral injection, dosed twice at interval of 7 days, 100 μl/mouse/time.
Description: as §2, §3, §1
BALB/c mice were used as experimental subjects, and breast cancer 4T1 cells were used as modeling cells. 0.5×10^6 cells/mouse were injected into the right axilla subcutaneously for transplantation tumor modeling, and the average tumor volume of successfully modeled nude mice was 107.4 mm^3. The model animals were randomly divided into 17 groups.
The drugs, formulated according to the method of Example 1, were administered according to Table 16. Each group was dosed twice with an interval of 7 days, and the injection volumes were 300 μl/mouse/time for groups 13 and 14, 100 μl/mouse/time for other groups. The drugs were administered by subaxillary administration of the right forelimb for group 15, and by intratumoral injection for other groups. Group 16 was administered sequentially (the first dose was aprobiotic semi-fluid-like component/cytotoxic drug/weak local acting compound, and the last dose was inactivated probiotics), while the other groups were administered with the same drug twice. On days 7 and 21 after the last dose, the tumor volumes of each group were measured (V7d, V21d), and the relative tumor proliferation rates (R7d, R21d) were calculated relative to the negative control group, respectively, so that the short-term therapeutic effectiveness (100%−R7d) and the medium- and long-term therapeutic effectiveness (100%−R21d) could be calculated, respectively.

From US20230405063A1, “USE OF PROBIOTIC COMPONENT AND PHARMACEUTICAL COMPOSITION CONTAINING PROBIOTIC COMPONENT” (CHENGDU KUACHANGAOPU MEDICAL TECHNOLOGY CO., LTD., priority 2020, published 2023) come the findings set out here.

As to `CN(C)c1ccc2nc3ccc(=[N+](C)C)cc-3sc2c1` [1% methylene blue, methylene blue], in the test on breast cancer 4T1 cells [1], the “tumor inhibition rate rA” value is recorded as 3.7%. Further, the “tumor inhibition rate rB” value in the test on breast cancer 4T1 cells [1] is 13.4%. Also, the Tumor inhibition rate in test [2] is on record as 26.4%; in test [2] (listed as 0.50% methylene blue), 17.7%; in test [2] (listed as 3% methylene blue), 71.1%. The “Tumor weight (x ± s)” value in test [2] is listed as 0.186 ± 0.096 g; in test [2] (listed as 0.15% methylene blue), 0.227 ± 0.107 g; in test [2] (listed as 0.50% methylene blue), 0.208 ± 0.115 g; in test [2] (listed as 3% methylene blue), 0.073 ± 0.033 g; in test [4], 0.197 ± 0.062 g. In addition, the “V (x ± s), volume of local lesions, series B” value in test [3] (intra-nodal injection) worked out at 1.020 ± 0.210 cm^3. Moreover, the “V (x ± s), volume of local lesions, series A” value in test [3] (intraperitoneal injection) is recorded as 1.288 ± 0.205 cm^3. Besides, the “Tumor inhibition rate r” value in test [4] is recorded as 12.5%.
Turning to `OC[C@H]1OC(O)[C@H](O)[C@@H](O)[C@@H]1O` (stereo partly drawn) [20% glucose aqueous solution], in test [5], the “Tumor inhibition rate r′3” value worked out at 3.1% and the “Tumor inhibition rate r′21” value came to 4.3%.
The corresponding values for `OC[C@H]1OC(O)[C@H](O)[C@@H](O)[C@@H]1O` (stereo partly drawn) [30% glucose aqueous solution] are 20.8% and 8.2%.

B1: interleukin-12 (protein, UniProt P29459 23-219; P29460 23-328, looked up)
Interleukin-12 subunit alpha: RNLPVATPDPGMFPCLHHSQNLLRAVSNMLQKARQTLEFYPCTSEEIDHEDITKDKTSTVEACLPLELTKNESCLNSRETSFITNGSCLASRKTSFMMALCLSSIYEDLKMYQVEFKTMNAKLLMDPKRQIFLDQNMLAVIDELMQALNFNSETVPQKSSLEEPDFYKTKIKLCILLHAFRIRAVTIDRVMSYLNAS
Interleukin-12 subunit beta: IWELKKDVYVVELDWYPDAPGEMVVLTCDTPEEDGITWTLDQSSEVLGSGKTLTIQVKEFGDAGQYTCHKGGEVLSHSLLLLHKKEDGIWSTDILKDQKEPKNKTFLRCEAKNYSGRFTCWWLTTISTDLTFSVKSSRGSSDPQGVTCGAATLSAERVRGDNKEYEYSVECQEDSACPAAEESLPIEVMVDAVHKLKYENYTSSFFIRDIIKPDPPKNLQLKPLKNSRQVEVSWEYPDTWSTPHSYFSLTFCVQVQGKSKREKKDRVFTDKTSATVICRKNASISVRAQDRYYSSSWSEWASVPCS
notes: immunoenhancement control
As to B1, in the test with breast cancer 4T1 cells [1], the “tumor inhibition rate rA” value amounted to 5.3% and the “tumor inhibition rate rB” value was 4.6%. In test [6] (intratumoral injection), the “Tumor weight (x ± s)” value stood at 0.241 ± 0.111 g and the “Tumor inhibition rate r” value is on record as 8.1%. Further, in test [6] (intravenous injection), the “Tumor weight (x ± s)” value was 0.230 ± 0.102 g and the “Tumor inhibition rate r” value was determined as 4.7%. In the test with breast cancer 4T1 cells [7] (day 7 after last dose), the “R7 d (relative tumor proliferation rate)” value was 99%. The “R21 d (relative tumor proliferation rate)” value with breast cancer 4T1 cells [7] (day 21 after last dose) stood at 97%. Also, the “relative tumor proliferation rate R7 d” value in the test on breast cancer 4T1 cells [8] (day 7 after last dose) came out at 95%. The “relative tumor proliferation rate R21 d” value in the test with breast cancer 4T1 cells [8] (day 21 after last dose) came to 96%.
